Test system: mononucleosomes
Test: LANA peptide competition
Type: binding
Method: The LANA peptide competition was set up in a similar manner as the peptide pull-down experiments with the following exceptions: SMARCB1-CC (aa 351-385) biotin-labeled peptides at 10 μM in EB150 were bound to Streptavidin Dynabeads® (Pierce™ Streptavidin Magnetic Beads, Thermo Scientific) in parallel to […] of mononucleosomes incubated with LANA peptide (KE Biochem) at varying concentrations ranging from 0-30 μM overnight at 4° C. Beads were washed 3 times in EB150, and resuspended with the mononucleosome/LANA peptide solutions. The suspension was rotated for 3-5 hours at 4° C. The beads were washed 3-5 times in EB150, and eluted in Sample Buffer (2×LDS with 200 mM DTT) to load onto […] Tricine gels.

## MAPPGMRLRSGRSTGAPLTRGSC [LANA Peptide]
  antagonism of SMARCB1 CC domain-nucleosome interaction in competition experiments: only partially antagonized
1-20 uM concentration gradient, visualization of H3
  changes in SMARCB1 C-terminal domain peptide-nucleosome binding in LANA peptide competition: minimal changes
